Laboratory results taken from US11786500B2, “Glutaminase inhibitor therapy” (Board of Regents, The University of Texas System, priority 2017, dated 2023).
Entries after “also recorded” stand apart in the source; their conditions may differ. Where two headings read alike, the source gives them in different places.

Legend:
[1] = tested on: ASNSlow HGSOC patient-derived xenograft; experiment: ASNSlow HGSOC patient-derived xenograft (PDX) model; assay type: in vivo, NOD/SCID mice; settings: orally 100 mg/kg, BID for 39 days; p<0.0001 vs vehicle control
Method: The the anti-tumor effects of Compound 2 were tested in vivo in an ASNS^low HGSOC patient-derived xenograft (PDX) model using human tumor tissue that was identified through immunohistochemistry to be ASNS^low and characterized through histological phenotyping to be of a high-grade serous subtype, implanted in to NOD/SCID mice.
Compound 2 inhibits tumor growth of an ASNS^low PDX xenograft as a single agent in NOD/SCID mice (FIG. 23(b)). In this experiment, Compound 2, administered orally at a dose of 100 mg/kg, BID for 39 days inhibited tumor growth (TGI=50%, p<0.0001 for tumor volumes after treatment with Compound 2 vs vehicle control).

SK-OV-3 cells = experiment: Orthotopic model of ovarian cancer (SK-OV-3, intraperitoneal); assay type: in vivo, athymic nude mice; settings: day 21; compared to vehicle or paclitaxel alone
Method: SK-OV-3 cells were injected into the intraperitoneal cavity of athymic nude mice and allow to grow for 7 days. At day 7, animals were treated with the in vivo tool compound to inhibit GLS-1 and animals were monitored for clinical disease signs.

OVCAR-8 tumors = experiment: Glutamate:glutamine ratio in OVCAR-8 tumor lysates (mass spec); assay type: in vivo; settings: dosed for 1, 7 or 21 days
Method: OVCAR-8 tumors were dosed for 1, 7 or 21 days and then harvested from animals. Tumor lysates were analyzed by mass spec for the presence of glutamine and glutamate.

[2] = tested on: OVCAR-8 subcutaneous xenografts; experiment: OVCAR-8 subcutaneous xenograft; assay type: in vivo, athymic mice; settings: 100 mpk, twice a day, oral gavage, three weeks
Method: OVCAR-8 cells were implanted subcutaneously into athymic mice and allowed to grow into an established tumor. Animals were then treated with compound 2, for three weeks (100 mpk, twice a day) by oral gavage.

A2780 = experiment: Cell viability / proliferation assay (Cell Titer Glo, 72 h); assay type: cell-based
Text: (§1) Cells were allowed to settle and attach overnight.

IGROV1 = experiment: as above; assay type: cell-based
Text: as §1

OVCAR4 [3] = experiment: as above; assay type: cell-based
Text: as §1

[4] = tested on: OVCAR8 and OVCAR420 cells; experiment: DNA damage staining and quantification (γH2AX foci); assay type: cell-based; settings: 48 hours
Method: Cells were then fixed using 4% Paraformaldehyde and permeabilized using 0.5% TritonX100. Fixed cells were stained with Anti-γH2AX, rabbit (Bethyl IHC-00059) (1:500) for 2 h at 37 C. The secondary antibody used was Alexa Fluor 546 donkey anti-rabbit (Invitrogen A10040) (1:150) simultaneously with Hoechst 33342, Trihydrochloride, Trihydrate (Invitrogen, H3570) (1:1000) for 1 h at 37 C. DNA damage was measured as a γH2AX signal per nucleus using PerkinElmer High Content Screening System Operetta with the Harmony software. First, nuclei were selected using Hoechst staining. Then, single cells were gated based on nucleus size and shape. Apoptotic and mitotic cells were excluded based on maximum Hoechst intensity in the nucleus. DNA damage foci were identified within the gated nuclei using the “find spots in Alexa 546 channel” analysis block. Finally, the total intensity of Alexa 546 within all “spots” in the nucleus, or the total number of spots in the nucleus, averaged per cell, was calculated.
GLS-1 inhibition induces oxidative stress that leads to accumulation of DNA damage. […] Moreover, we observed an accumulation of γH2AX foci, a marker of DNA damage, and the likely cause of anti-proliferative effects observed upon GLS-1 inhibition (FIG. 11).

OVCAR429 [5] = experiment: Cell viability / proliferation assay (Cell Titer Glo, 72 h); assay type: cell-based
Method: (§4) Cells were allowed to settle and attach overnight. Cells plated in triplicate for each concentration and control examined. […] Cells were incubated with compound or relevant controls for 72 hours. On Day 4, 72 hours after treatment, cells were analyzed by Cell Titer Glo (PromegaG7573) per manufacturer's instructions. Plates were read in luminescence mode on a PheraStarFS plate reader. Data was collected, replicates were averaged, standard deviations calculated and analyzed through nonlinear regression analysis with four (4) parameters to generate IC50s for each cell line tested.

[6] = tested on: responder cells OVCAR420, OVCAR429; experiment: Analysis of reactive oxygen species production (CM-H2DCFDA, flow cytometry); assay type: cell-based; settings: 1 μM, 48 hours
Method: One day prior to the experiment, OVCAR-8 and OVCAR420 cells were seeded in 6 well dishes (250,000 cells per well). […] The following day, an allocated well was treated with hydrogen peroxide for 20-30 minutes as a positive control for ROS generation. All wells were then stained with CM-H2DCFDA (5 μM, Life Technologies) for 30 minutes at 37° C., washed with 1×PBS, harvested by trypsinization, and re-suspended in 400 μl phenol-free RPMI medium. Cells were strained through a […] cell strainer and analyzed using a flow cytometer (LSR Fortessa).
For each condition, calculation of mean fluorescence intensity allows for the comparison of ROS accumulation between control and treated samples. Shown are responder cells: (a) OVCAR420; (b) OVCAR429, with GFP-A on the x-axis, and count on the y-axis.

[7] = tested on: OVCAR8, OVCAR429, OVCAR4, and IGROV1 cells; experiment: Metabolomics (LC-MS/MS metabolic profiling); assay type: cell-based; settings: 1 μM, 24 hours; muted or absent in non-responder lines
Method: OVCAR8 cells were plated at 3×10^6 cells per 10 cm dish and OVCAR429, IGROV1, and OVCAR4 were plated at 3.5×10^6 cells per 10 cm dish 24 hours (24 h) prior to treatment. […] On day 1 (d.1), 2 hours (2 h) prior to harvest, samples were washed with 5 mL media containing 10% dialyzed FBS. 10 mL of media was added to plates and plates were returned to the incubator for 2 h. Media was then aspirated from plates and 4 mL of 80% chilled MeOH (−80° C.) was immediately added. Plates were incubated at −80° C. for 15 minutes. Cells were then scraped with cell scraper to release cells while keeping plates on dry ice. The MeOH/cell lysate mixture was collected and transferred to conical tubes on dry ice. Tubes were centrifuged at full speed in 4° C. chilled centrifuge for 5 minutes. Supernatant was transferred to another set of conical tubes on dry ice by decanting. The remaining pellet was re-suspended in 500 μL of cold MeOH and the mixture was moved to a microcentrifuge tube. Microfuge tubes were spun at full speed for 5 minutes in 4° C. chilled microcentrifuge. […]
Differentially abundance analysis of metabolite levels was carried out using a moderated t-test function from Bioconductor's limma package (Smyth 2005). […] The normalization factor was calculated by first defining a vector, Nmed, to be the median peak area for each metabolite across a set of samples. […]

OVCAR8 [8] = experiment: Cell viability / proliferation assay (Cell Titer Glo, 72 h); assay type: cell-based
Method: as §4

OVCAR420 [9] = experiment: cells
Method: Cell culture media: All cells were grown in RPMI-1640 (Gibco11875-119) with 2 mM Glutamine+10% FBS (Gibco16000-044) unless otherwise noted.
Cells were plated in black, 96-well Corning Costar 3603 at densities to allow for Log phase growth throughout the experiment (see table below) on Day 0. Cells were allowed to settle and attach overnight. Cells plated in triplicate for each concentration and control examined. […] Cells were incubated with compound or relevant controls for 72 hours. On Day 4, 72 hours after treatment, cells were analyzed by Cell Titer Glo (PromegaG7573) per manufacturer's instructions. Plates were read in luminescence mode on a PheraStarFS plate reader. Data was collected, replicates were averaged, standard deviations calculated and analyzed through nonlinear regression analysis with four (4) parameters to generate IC50s for each cell line tested.

OVCAR420 [10] = experiment: Analysis of glutathione levels (GSH-Glo); assay type: cell-based; settings: OVCAR420, 1 μM, 24 hours
Method: (§2) Analysis of Glutathione Levels: Cells were plated in 96-well Corning Costar 3603 at 10,000 cells/well on Day 0. Cells were allowed to settle and attach overnight. […] Cells were incubated with compound or relevant controls for 24 hours. On Day 2, 24 hours after treatment, cells were analyzed by GSH-Glo (PromegaV6912) per manufacturer's instructions. […] Duplicate wells were plated and then stained with crystal violet in order to correct for differences in cell growth as described below.
(§3) GLS-dependence is driven by addiction to glutamine-dependent, glutathione-mediated redox maintenance in OVCA responder cell lines. […] Consistent with this hypothesis, GLS-1 inhibition induced a significant decrease in intracellular glutathione and a concurrent increase in reactive oxygen species (FIGS. 7 and 8) in responder lines.

OVCAR429 [11] = experiment: Analysis of glutathione levels (GSH-Glo); assay type: cell-based; settings: OVCAR429, 1 μM, 24 hours
Method: as §2, §3

OVCAR4 [12] = experiment: Analysis of glutathione levels (GSH-Glo); assay type: cell-based; settings: OVCAR4 (non-responder), 24 hours
Method: as §2, §3

OVCAR8 [13] = experiment: Analysis of glutathione levels (GSH-Glo); assay type: cell-based; settings: OVCAR8, 1 μM, 24 hours
Method: as §2, §3

| SMILES | TGI (tumor growth inhibition) [1] | combined nodule weight per animal (SK-OV-3 cells) | glutamate:glutamine ratio in tumors (OVCAR-8 tumors) | tumor growth (tumor volume) [2] | response, viability (A2780) | response, 72 hour viability (IGROV1) | response, viability (OVCAR4 [3]) | DNA damage (γH2AX foci per nuclei) [4] | IC50 (OVCAR429 [5]) | response, 72 hour viability (OVCAR429 [5]; OVCAR429) | IC50 (OVCAR429 [5]; OVCAR429, 72 h, read-out: IC50, viability (relative to DMSO)) | accumulation of intracellular ROS [6] | changes in metabolite levels [7] | IC50 (OVCAR8 [8]; Homo sapiens, OVCAR-8, OVCAR8, 72 h, read-out: IC50, viability (relative to DMSO)) | response, 72 hour viability (OVCAR8 [8]; OVCAR8) | IC50 (OVCAR420 [9]) | GSH levels (OVCAR420 [10]) | GSH levels (OVCAR429 [11]) | GSH levels (OVCAR4 [12]) | GSH levels (OVCAR8 [13]) |
| --- | --- | --- | --- | --- | --- | --- | --- | --- | --- | --- | --- | --- | --- | --- | --- | --- | --- | --- | --- | --- |
| CNC(=O)c1cn(C[C@H](F)CCc2ccc(NC(=O)Cc3cc(OC4CC(F)(F)C4)cc(C)n3)nn2)nn1 [Compound 2, (R)-1-(4-(6-(2-(4-(3,3-difluorocyclobutoxy)-6-methylpyridin-2-yl)acetamido)pyridazin-3-yl)-2-fluorobutyl)-N-methyl-1H-1,2,3-triazole-4-carboxamide] | 50% | robust reduction | altered glutamine metabolism | significant tumor growth inhibition |  |  |  |  |  |  |  |  |  |  |  |  |  |  |  |  |
| O=C(Cc1cccc(OC(F)(F)F)c1)Nc1ccc(CCCCc2nnc(NC(=O)Cc3ccccn3)s2)nn1 [Compound 1, 2-(pyridin-2-yl)-N-{5-[4-(6-{2-[3-(trifluoromethoxy)phenyl]acetamido}pyridazin-3-yl)butyl]-1,3,4-thiadiazol-2-yl}acetamide] |  |  |  |  | no response | resistant | resistant; also recorded: no response | induces DNA damage | 76 nM | nM sensitivity | 59 nM | induces an accumulation of ROS | decrease in TCA cycle activity | 13 nM | nM sensitivity | 59 nM | significantly decreased | significantly decreased | does not show a significant decrease | significantly decreased |
